Earlier results, collected in paper PMC5959268 (Journal of medicinal chemistry, 2016).
Counter-ions that a name gives are not always drawn. *1 amine or outer side, *2 acyl side, *3 side chain or, on linkers, in order; H or OH if unused. Where no end group is shown, it is not given here. [ ]: non-standard residue; d: D form. Tyr(125I) = tyrosine labelled with iodine-125, O=C([C@H](Cc1ccc(O[*:3])c([125I])c1)N[*:1])[*:2]

Key:
[1] = system: hair regrowth; conditions: aging CRF-overexpressing mice
[2] = system: CRF-stimulated ACTH release by cultured rat anterior pituitary cells; conditions: rat pituitary cells in culture and adrenalectomized rats
[3] = target: CRF-R1; conditions: read-out: Kd of tracer at CRF-R1; saturation binding of radioligand

| Molecule | hair regrowth [1] | also measured |
| --- | --- | --- |
| CCCCN(CC)c1nc(C)nc2c1c(C)c(C)n2-c1c(C)cc(C)cc1C [antalarmin, N-butyl-N-ethyl-2,5,6-trimethyl-7-(2,4,6-trimethylphenyl)-7H-pyrrolol[2,3-d]pyrimidin-4-amine hydrochloride] | spotty results | – |
| Nc1cc(N2CCCCC2)nc(N)[n+]1[O-] [minoxidil, 2,4-pyrimidinediamine, 6-(1-piperidinyl)-, 3-oxide] | spotty results | – |
| [D-Phe^12,Nle^21,38]-h/rCRF(12–41) | – | potency relative to α-helical-CRF(9–41) at inhibiting release of ACTH [2]: ~ 18 times |
| [^125ITyr^0-Glu^1]-PD-Svg YEGTSLDLTFDLLRHNLEIAKQEALKKQAAKNRLLLDTI-NH2 ([Tyr(125I)]EGTSLDLTFDLLRHNLEIAKQEALKKQAAKNRLLLDTI-NH2) | – | Kd [3]: 0.42 nM |
